Data on one substance can be found in patent US20210330744A1, “Methods and Compositions for Treating Neurodegeneration and Fibrosis” (Temple University-Of The Commonwealth System of Higher …, priority 2017, published 2021).

Common to all, as to assay type: cell-based, mouse
One assay concerns MICU1. Nature of the assay: Western blot of mtCU components in WT MEFs. On the procedure: (§1) Myofibroblast differentiation was induced using 10 ng ml^−1 recombinant mouse Transforming growth factor-β (TGFβ) or 10 μM Angiotensin II (AngII,). In all experiments, FBS was reduced to 1% 24 hours prior to and during treatment with TGFβ or AngII.
All protein samples were lysed by homogenization in RIPA buffer supplemented with phosphatase inhibitors and protease inhibitors. Samples were sonicated briefly and centrifuged at 5,000 g for 10 minutes. The supernatant was collected and used for further analysis. Protein amount was quantified using the Bradford Protein Assay and equal amounts of protein (10-50 μg) were run by electrophoresis on polyacrylamide Tris-glycine SDS gels. Gels were transferred to PVDF and membranes were blocked for 1 hour in Blocking Buffer followed by incubation with primary antibody overnight at 4° C. Membranes were washed in TBS-T 3 times for 5 minutes each and then incubated with secondary antibody for 1 hour at room temperature. After incubation with fluorescent secondary antibodies, membranes were washed in TB S-T 3 times for 5 minutes each and then imaged on a Licor Odyssey system. The following antibodies were used in the study: MCU (1:1,000), MCUb (1:250,), MICU1 (1:500,), MCUR1 (1:500), EMRE (1:250, Santa Cruz, sc-86337), VDAC (1:1,000), PDHE1α phospho 5293 (1:1,000), PDHE1α (1:1,000,), IDH3A (1:500), α-tubulin (1:1,000), ETC respiratory chain complexes (1:2,500), H3K4me3 (1:2,000), H3K9me3 (1:2,000), H3K27me3 (1:2,000), H3K4me2 (1:2,000), H3K9me2 (1:2,000), H3K27me2 (1:2,000), H3 (1:2000); and secondary antibodies: anti-mouse (1:12,000), anti-rabbit, (1:12,000), and anti-goat (1:12,000).
(In western blotting, separated proteins are transferred to a membrane and probed.)

Assay [1] deals with MEFs. Nature of the assay: Metabolomic profiling of MEFs (CE-TOFMS, CE-QqQMS). On the procedure:
Cells in a 10 cm dish were washed with 5% (w/w) mannitol (10mL for the first wash, 2 mL for the second wash) and extracted in 800 μL methanol plus 550 μL internal standard solution (Human Metabolome Technologies, HMT). Extracted solution was spun down at 2,300×g at 4° C. for 5 minutes. The supernatant was transferred into centrifugal filter units (HMT) and centrifuged at 9,100×g at 4° C. for ˜3.5 h until no liquid remained in the filter cup. Filtrate was frozen at −80° C. and shipped to HMT for analysis by CE-TOFMS and CE-QqQMS (Boston, Mass.). Filtrate was centrifugally concentrated and resuspended in 50 μl of ultrapure water immediately before the measurement.
Cationic metabolites were analyzed using an Agilent CE-TOFMS system Machine No. 3 and a fused silica capillary (i.d. 50 μm×80 cm) with Cation Buffer Solution as the electrolyte. The sample was injected at a pressure of 50 mbar for 10 seconds. The applied voltage was set at 27 kV. Electrospray ionization-mass spectrometry (ESI-MS) was conducted in the positive ion mode, and the capillary voltage was set at 4,000 V. The spectrometer was scanned from m/z 50 to 1,000.
Anionic metabolites were analyzed using an Agilent Capillary Electrophoresis System equipped with an Agilent 6460 TripleQuad LC/MS Machine No. QqQ3 and a fused silica capillary (i.d. 50 μm×80 cm) with Anion Buffer Solution as the electrolyte. The sample was injected at a pressure of 50 mbar for 25 seconds. The applied voltage was set at 30 kV. ESI-MS was conducted in the positive and negative ion mode, and the capillary voltage was set at 4,000 V for positive and 3, 500 V for negative mode.
Peaks detected in CE-TOFMs analysis were extracted using automatic integration software and those in CE-QqQMS analysis were extracted using automatic integration software in order to obtain peak information including m/z, migration time, and peak area. The peak area was then converted to relative peak area by the following equation: Relative peak area=Metabolite Peak Area/(Internal Standard Peak Area x Normalization Factor). The peaks were annotated based on the migration times in CE and m/z values determined by TOFMS. Putative metabolites were then assigned from HMT metabolite database on the basis of m/z and migration time. All metabolite concentrations were calculated by normalizing the peak area of each metabolite with respect to the area of the internal standard and by using standard curves, which were obtained by three-point calibrations. A heat map was generated using ClustVis. Unit variance was applied to rows. Rows were clustered using Manhattan distance and average linkage.

The test system of the next assay is 5-methylcytosine (5-mC). As to the kind of experiment: Global DNA methylation ELISA. Particulars: MEFs. On the procedure: To extract genomic DNA, cells were collected and washed with PBS followed by 2 h incubation at 60° C. in DNA isolation buffer (0.5% SDS, 100 mM NaCl, 50 mM Tris pH 8, 3 mM EDTA, 0.1 mg/mL proteinase K). DNA was extracted using chloroform followed by ethanol precipitation and dissolved in double-distilled water. DNA methylation was quantified using the MethylFlash™ Methylated DNA Quantification Kit. 100 nanograms of input DNA was used per reaction. Absorbance at 450-nm was measured using a Tecan Infinite F50 microplate reader.
(In general: An ELISA detects its analyte on a solid surface through an enzyme-linked reagent.)

Another assay relates to NFATc1. Nature of the assay: NFAT translocation assay. Particulars: control cells (Ad-βgal), 24 hours. How it is done:
MEFs were plated on coated 35-mm dishes and infected with Ad-NFATc1-GFP for 24 hours at which time live-cell images were taken followed by treatment with 10 ng m1^1 TGFP or 10 μM AngII for 24 hours. For live-cell imaging, cells were placed in a 37° C. heated chamber on a Carl Zeiss Axio Observer Z1 fluorescent microscope. Prior to imaging, MEFs were incubated with Hoechst 33342 to demarcate cell nuclei. Images were acquired in the green channel (490ex/525em) and blue channel (350ex/460em). NFAT localization was quantified as the nuclear/cytoplasmic ratio of GFP fluorescence. More than 50 cells per dish were analyzed.

The subject of assay [2] is MEFs. Nature of the assay: ECAR and OCR measurements (Seahorse XF96) in MEFs. On the procedure:
as §1
A Seahorse Bioscience XF96 extracellular flux analyzer was employed to measure extracellular acidification rates (ECAR) and oxygen consumption rates (OCR). ECAR was measured using the Glycolytic Stress Test Kit and OCR was measured using the Miro Stress Test Kit. To evaluate ECAR, 20,000 MEFs/well were plated in XF media pH 7.4 without supplementation. […] To evaluate OCR, 20,000 MEFs/well were plated in XF media pH 7.4 supplemented with 10 mM glucose and 1 mM sodium pyruvate. […] After each experiment, protein concentration was measured and wells were normalized using the Wave software.

For “TGFβ: recombinant mouse Transforming growth factor-β, pro-fibrotic agonist”, in the assay with MICU1, the MICU1/MCU ratio result is reported as “rapidly increased”. Further, the MICU1 expression result with MICU1 (12 hours after treatment) is given as “dramatic increase”. Further, in the assay with MEFs [1] (12 h after treatment), the “α-ketoglutarate (αKG)” value is “increased”. Also, in the assay with MEFs [1] (12 h post-treatment), the “F-1,6-BP” value is on record as “significantly increased” and the citrate levels result is “significantly reduced”. In the assay on MEFs [1] (control MEFs 12 h post-treatment, from 1000 at baseline), this substance displayed a pyruvate of 1600 pmol/million cells. Further, the “glutamine (Gln) and glutamate (Glu) levels” value with MEFs [1] (control cells) is recorded as “decreased”. Besides, the “increase in αKG” value in the assay with MEFs [1] (treated fibroblasts) is given as around 2 fold. Also, the “global DNA methylation” value in the assay with 5-methylcytosine (5-mC) is on record as “Slight, but non-significant, decreases”. In addition, the “nuclear translocation of NFATc1” value in the assay on NFATc1 is reported as “induced nuclear translocation of NFATc1”. Moreover, in the assay on MEFs [2] (at peak (TGFβ 48 hours, AngII ~12 hours)), the “increase in glycolysis from baseline” value is above 400%. In addition, the “increase in basal respiration from baseline” value with MEFs [2] (peaking 48 hours after treatment) is on record as around 135%.
